This is an account of results in ChEMBL document CHEMBL1201862, “PubChem BioAssay data set” (2004).

Test systems include A498; CCRF-CEM; HCT-116; KM12; MOLT-4; Malme-3M; NCI-H460; SF-268; SK-MEL-5; SW-620; U-251; UACC-62; UO-31; HL-60; SR.
What all share (experiment): inhibition of tumour cell growth, NCI panel, 48 h

SMILES strings stand for the structures.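 Growth conditions: 96-well plates. Treatment: test compound, 48 hours, 5 concentrations. Analysis: linear interpolation between bracketing concentrations; unreached endpoints set to highest concentration. GI50 is the concentration that inhibits growth by half.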 The source made the active and inactive calls. No stated cut-off is given here; in the data, active = GI50 up to about 1.1 µM and inactive = higher. Where only a bound is given, the exact number is not on record here.

On to `COc1ccc(/C=C2\CCc3ccccc3C2=O)cc1OC`, for which the GI50 with A498 is 46.6 µM (inactive); with CCRF-CEM, 24.8 µM (inactive); in the assay on HCT-116, 17.9 µM (inactive); in the assay on KM12, 19.6 µM (inactive); with MOLT-4, 21.4 µM (inactive); with Malme-3M, 38.3 µM (inactive). The GI50 with NCI-H460 was 34.8 µM (inactive); in the assay with SF-268, 20.8 µM (inactive); in the assay on SK-MEL-5 it was 15.9 µM (inactive); with SW-620 it was 28.4 µM (inactive); with U-251, 31 µM (inactive); in the assay with UACC-62, 16 µM (inactive). Moreover, the GI50 with UO-31 was 29.2 µM (inactive).
Turning to `COc1ccc(SS(=O)(=O)c2ccc(OC)cc2)cc1`, the GI50 is 17.2 µM (inactive) with A498; 2.64 µM (inactive) in the assay on CCRF-CEM; 16.1 µM (inactive) in the assay with HCT-116; 2.24 µM (inactive) with HL-60; 16.5 µM (inactive) in the assay on KM12; 13.2 µM (inactive) in the assay on MOLT-4. Also, the GI50 in the assay with Malme-3M was 33.3 µM (inactive); in the assay with NCI-H460, 38.6 µM (inactive); in the assay with SF-268, 17.4 µM (inactive); in the assay with SK-MEL-5, 15.2 µM (inactive); in the assay on SR it was 23.1 µM (inactive); in the assay on SW-620, 3.69 µM (inactive). Moreover, the values for the GI50 with U-251, in the assay with UACC-62 and with UO-31 were 14.2 µM (inactive), 20 µM (inactive) and 13.9 µM (inactive), respectively.
Turning to `O=C(O)c1cc(Cl)cc(NC(=O)C(Cl)Cl)c1Cl`, the GI50 in the assay on A498, in the assay with CCRF-CEM, in the assay on HCT-116, with HL-60, with KM12 and in the assay on MOLT-4 was > 100 µM (inactive) throughout. Further, the GI50 in the assay on Malme-3M, in the assay on NCI-H460, in the assay with SF-268, in the assay on SK-MEL-5, in the assay on SW-620 and in the assay on U-251 was > 100 µM (inactive) each time. Moreover, the GI50 in the assay with UACC-62 and in the assay on UO-31 was > 100 µM (inactive) each time.
Turning to `Cn1c(=O)n(C2(C)CSC2)c2ccccc21`, the GI50 with A498, in the assay on CCRF-CEM, in the assay on HCT-116, in the assay on HL-60, with KM12 and in the assay on MOLT-4 was > 100 µM (inactive) throughout. In addition, the GI50 in the assay on NCI-H460, with SF-268, with SK-MEL-5, in the assay with SR, in the assay on SW-620 and in the assay with U-251 was > 100 µM (inactive) each time. Besides, the GI50 in the assay with UACC-62 and in the assay with UO-31 was > 100 µM (inactive) throughout.
In the case of `CN(C)CCn1cnc2ncccc2c1=O`, the GI50 in the assay with CCRF-CEM, in the assay with HCT-116, in the assay on KM12, in the assay on MOLT-4, with Malme-3M and with NCI-H460 was > 100 µM (inactive) each time. The GI50 with SF-268, with SK-MEL-5, in the assay with SR, in the assay on SW-620, with U-251 and in the assay with UACC-62 was > 100 µM (inactive) in each case. Besides, the GI50 with UO-31 was > 100 µM (inactive).
Turning to `CC(=O)Oc1ccc2c(c1)C(=O)c1nc(C)c(C)nc1C2=O`, the GI50 is > 63.4 µM (inactive) in the assay on A498; 35.4 µM (inactive) with CCRF-CEM; 43.7 µM (inactive) in the assay on HCT-116; 24.6 µM (inactive) with HL-60; 59.3 µM (inactive) in the assay on KM12; 41.8 µM (inactive) with MOLT-4. The GI50 in the assay on Malme-3M was 19.5 µM (inactive); in the assay on NCI-H460 it was 30.8 µM (inactive); with SF-268, 94.2 µM (inactive); in the assay on SK-MEL-5, 16.2 µM (inactive); in the assay with SR, 29.6 µM (inactive); in the assay with SW-620 it was 46.5 µM (inactive). Also, the GI50 was 51.6 µM (inactive) in the assay on U-251, 17.5 µM (inactive) in the assay on UACC-62 and > 74.6 µM (inactive) in the assay with UO-31.
Turning to `CC(C)=CC(=O)Cc1nc2ccc([N+](=O)[O-])cc2[nH]c1=O`, the GI50 was > 100 µM (inactive) with A498; > 100 µM (inactive) with HCT-116; 40.8 µM (inactive) in the assay on HL-60; 25.2 µM (inactive) with MOLT-4; > 100 µM (inactive) in the assay with Malme-3M; > 100 µM (inactive) with NCI-H460. Further, the GI50 in the assay with SF-268 is > 100 µM (inactive); with SK-MEL-5, 22.6 µM (inactive); in the assay with SW-620, > 100 µM (inactive); in the assay on UACC-62, > 100 µM (inactive); in the assay with UO-31, 63.1 µM (inactive).
Take `Brc1ccc(-c2cc3c(cc2C2SCCS2)OCO3)cc1`: the GI50 in the assay on A498 was 19 µM (inactive); with CCRF-CEM, 19.3 µM (inactive); in the assay with HCT-116, 30.1 µM (inactive); with HL-60, 15.4 µM (inactive); in the assay with KM12, 39.4 µM (inactive); in the assay with MOLT-4 it was 13.4 µM (inactive). For the same compound, the GI50 was 45.1 µM (inactive) in the assay with Malme-3M; 29.6 µM (inactive) in the assay on NCI-H460; 26.9 µM (inactive) in the assay with SF-268; 23.3 µM (inactive) with SK-MEL-5; 18.4 µM (inactive) in the assay with SR; 25.6 µM (inactive) in the assay on SW-620. Moreover, the GI50 with U-251 was 29.7 µM (inactive); in the assay on UO-31, 18.1 µM (inactive).
Consider `CC(C)(C)C1=CC(CCC(=O)Nc2ccccc2[N+](=O)[O-])=NC(S)N1` (stereo unspecified), for which the GI50 in the assay on CCRF-CEM, with HCT-116, with HL-60, in the assay on KM12, in the assay with MOLT-4 and in the assay on Malme-3M was > 100 µM (inactive) in each case. Further, the GI50 in the assay on NCI-H460, in the assay on SF-268, in the assay with SK-MEL-5, in the assay on SR, in the assay with SW-620 and with U-251 was > 100 µM (inactive) each time. The GI50 with UACC-62 and in the assay with UO-31 was > 100 µM (inactive) in each case.
For the compound `Cc1ccc(S(=O)(=O)N/N=C/CN2C(=O)c3ccccc3C2=O)cc1`, the GI50 in the assay on A498, in the assay with CCRF-CEM, in the assay with HCT-116, with HL-60, in the assay with MOLT-4 and in the assay with Malme-3M was > 100 µM (inactive) throughout. Also, the GI50 was > 100 µM (inactive) in the assay with NCI-H460; > 100 µM (inactive) in the assay on SK-MEL-5; > 100 µM (inactive) with SR; > 100 µM (inactive) with SW-620; > 100 µM (inactive) in the assay with U-251; 89.5 µM (inactive) in the assay on UACC-62. The GI50 in the assay on UO-31 is > 100 µM (inactive).
As for `CC(c1ccc2c(c1)CCC1C2CC2OC23CC=CC(=O)[C@]13C)C1C[C@]2(C)O[C@]2(C)[C@H](O)O1` (stereo partly specified), the GI50 in the assay with CCRF-CEM is 15.4 µM (inactive); in the assay on HCT-116, 0.256 µM (active); with HL-60, 1.96 µM (inactive); in the assay with KM12, 36.6 µM (inactive); in the assay on MOLT-4 it was 13.4 µM (inactive); in the assay on Malme-3M it was 71.4 µM (inactive). Besides, the GI50 in the assay on NCI-H460 was 25.2 µM (inactive); with SF-268, 63.4 µM (inactive); in the assay on SK-MEL-5, 11 µM (inactive); with SR, 13.1 µM (inactive); in the assay on SW-620, 25.3 µM (inactive); with U-251, 3.61 µM (inactive). Also, the GI50 in the assay with UACC-62 is 91.2 µM (inactive); in the assay with UO-31 it was 10.5 µM (inactive).
For `O=C(CC1(O)C(=O)Nc2ccccc21)c1ccc(F)cc1` (stereo unspecified), the GI50 with A498, in the assay on HCT-116, with HL-60, in the assay on MOLT-4, with Malme-3M and in the assay with NCI-H460 was > 100 µM (inactive) in each case. For the same compound, the GI50 in the assay on SF-268, in the assay with SK-MEL-5, in the assay on SW-620, with UACC-62 and in the assay with UO-31 was > 100 µM (inactive) each time.
As for `Nc1ncn(C2C=C(CO)C(O)C2O)c(=O)n1` (stereo unspecified), the GI50 with A498 was > 100 µM (inactive); in the assay on HCT-116, 40 µM (inactive); in the assay with HL-60, 31.6 µM (inactive); in the assay on KM12 it was > 100 µM (inactive); in the assay with MOLT-4 it was 59.4 µM (inactive); in the assay on Malme-3M, > 100 µM (inactive). The GI50 with NCI-H460 is 35 µM (inactive); in the assay on SF-268 it was 53 µM (inactive); in the assay on SK-MEL-5, > 100 µM (inactive); in the assay with SR, 26.7 µM (inactive); in the assay with SW-620, 57.5 µM (inactive); in the assay with U-251, > 100 µM (inactive). Further, the GI50 in the assay on UACC-62 was > 100 µM (inactive); in the assay with UO-31, 92.7 µM (inactive).
For the compound `CC(=O)Nc1ccc(/C=C/C(=O)c2sc(-c3nc(C)c(C(=O)/C=C/c4ccc(NC(C)=O)cc4)s3)nc2C)cc1`, the GI50 in the assay with CCRF-CEM, with HCT-116, with HL-60, in the assay with KM12, with MOLT-4 and in the assay on Malme-3M was > 100 µM (inactive) throughout. In addition, the GI50 in the assay on NCI-H460 is > 100 µM (inactive); in the assay with SF-268, > 10 µM (inactive); with SR, > 100 µM (inactive); with SW-620, > 100 µM (inactive); in the assay with U-251 it was > 100 µM (inactive); in the assay on UACC-62, > 100 µM (inactive). The GI50 in the assay with UO-31 was 97.5 µM (inactive).
Take `O=C1NC(=O)C2C1C1C=C3c4ccccc4N(c4ccccc4)C32[C@H]2C(=O)NC(=O)[C@@H]12` (stereo partly specified): the GI50 in the assay with A498, in the assay with CCRF-CEM, in the assay on HCT-116, in the assay on HL-60, in the assay with KM12 and with MOLT-4 was > 100 µM (inactive) each time. Besides, the GI50 with Malme-3M, with NCI-H460, in the assay on SF-268, with SK-MEL-5, with SW-620 and in the assay with UACC-62 was > 100 µM (inactive) each time. Besides, the GI50 in the assay with UO-31 is > 100 µM (inactive).
